Patent publication US8962880B2, “Amorphous asiatic tromethamine salt and preparation method thereof” (Shanghai Institute of Pharmaceutical Industry, priority 2011, dated 2015)
Converted amounts (≈) assume the structure as drawn.

Tests used:
[1] = in vivo, 50 mg

C[C@H]1[C@H](C)CC[C@]2(C(=O)O)CC[C@]3(C)C(=CC[C@@H]4[C@@]5(C)C[C@@H](O)[C@H](O)[C@@](C)(CO)[C@@H]5CC[C@]43C)[C@H]12 [asiatic acid, 2α,3β,23-trihydroxy-ursa-12-en-28-oic acid]
solubility (physchem; organic solvent or mixture): 33.1 mg/mL (≈ 67.7 mM)
solubility (physchem; water): 0.03 mg/mL (≈ 0.0614 mM)

C[C@H]1[C@H](C)CC[C@]2(C(=O)O)CC[C@]3(C)C(=CC[C@@H]4[C@@]5(C)C[C@@H](O)[C@H](O)[C@@](C)(CO)[C@@H]5CC[C@]43C)[C@H]12.NC(CO)(CO)CO [comparative sample, asiatic acid tromethamine salt]
bioavailability [1]: ca. 7.6%
